# Data: patent publication US20210052705A1, “METHOD OF DRUG […] FOR PTH, PTHrP AND RELATED PEPTIDES” (Radius Health, Inc., priority 2011, published 2021)
# Like-named read-outs stand apart in the source and are kept apart here.
# Experiments:
# [1] = in vivo; conditions: Sprague-Dawley, rat, 13.6 ug
# Method: Several additional single dose pharmacokinetic studies were performed in Sprague-Dawley rats.
# Dose Administration Typically, one day prior to dosing, an area just above the hind legs on the dorsal side of the rat was shaved using electric clippers. Nair® hair removal lotion was then applied to the area for 5 to 8 minutes to remove remaining hair stubble. The Nair lotion was removed completely using a cloth dampened with water. The next day the microneedle array was applied using the supplied spring loaded applicator. The microneedle array was left in contact with the skin for either five minutes before removal or removed almost immediately (typically 2-3 seconds after skin contact). During microneedle application and contact, the rats were manually restrained.
# Serum Sample Collection Blood was collected from each rat at 5, 15, 30, 45 and 90 minutes after application of microneedle arrays, for LCP-microneedle arrays and at 1, 5, 15 and 30 minutes after application for PC-microneedle arrays. Approximately 600 μL of blood was collected via the catheter from the jugular vein using a syringe and needle from rats for their first four blood draws. For the last blood collection, animals were euthanized via CO2 chamber and approximately 600 μL of blood was collected via cardiac puncture. The blood was immediately transferred to a serum separator tube that contained 12 μL of a 2.5 mg/ml aprotinin (Sigma) solution.
# [2] = set-up: AUC5-90, Mean: unit not given beside the values; conditions: Sprague-Dawley, rat, in vivo, 13.6 ug
# [3] = female, human, in vivo
# [4] = in vivo; conditions: male, Sprague Dawley, rat; for bioavailability: % F; for AUC(0-t): AUC0-t; for half-life: T1/2
# Method: Certain drug coated microarrays were tested in vivo in a preclinical model using Sprague Dawley rats. […] Male Sprague Dawley rats with jugular vein catheters were purchased from Charles River Laboratories. Once received, they were acclimated for at least 24 hours prior to dosing.
# Typically, one hour prior to dosing microneedle arrays were removed from refrigeration (approximately 4° C.) and allowed to equilibrate to room temperature.
# The standard procedure for skin preparation and microneedle array application is as follows.
# One day prior to dosing, an area just above the hind legs on the dorsal surface of the rat was shaved using electric clippers. Nair® hair removal lotion (Church & Dwight Co.) was then applied to the area for 5 to 8 minutes to remove remaining fur stubble. The Nair® lotion was then thoroughly removed using a damp cloth. The next day a microneedle array was applied using a spring-loaded applicator. The microneedle array was left in contact with skin for five minutes, before being removed. During array application and contact time the rats were manually restrained.
# Blood was collected at three time points from each animal out of a possible total of five time destinations (5 minutes, 15 minutes, 30 minutes, 45 minutes, 90 minutes) from each rat on a staggered schedule so that all time points would be represented with extra sampling at 15 minutes without overdrawing from any animal. Approximately 1 mL of blood was collected via the catheter from the jugular vein using a syringe and needle from rats for their first two blood draws. For the terminal blood collection, animals were euthanized via CO2 chamber and approximately 1 mL of blood was collected via cardiac puncture. The blood was immediately transferred to a serum separator tube that contained 25 μL of a 2.5 mg/ml aprotinin (Sigma) solution.
# Blood was collected from each rat 5, 10, 15, 30 and 45 minutes post dose. Approximately 600 μL of blood was collected via the catheter from the jugular vein using a syringe and needle from rats for their first four blood draws. For the terminal blood collection, animals were euthanized via CO2 chamber and approximately 600 μL of blood was collected via cardiac puncture. The blood was immediately transferred to a serum separator tube that contained 12 μL of a 2.5 mg/ml aprotinin (Sigma) solution.
# Blood was collected three or four times from each rat at the time points depicted in the tables below. Approximately 1 mL of blood was collected via the catheter from the jugular vein using a syringe and needle from rats for any non-terminal time points. For the terminal blood collection, animals were euthanized via CO2 chamber and approximately 1 mL of blood was collected via cardiac puncture. The blood was immediately transferred to a serum separator tube that contained 20 μL of a 2.5 mg/ml aprotinin (Sigma) solution.
# Blood was collected from each rat 5, 15, 30, 45, 90 and 120 minutes post dose. Approximately 500 μL of blood was collected via the catheter from the jugular vein using a syringe and needle from rats for their first five blood draws. For the terminal blood collection, animals were euthanized via CO2 chamber and approximately 500 μL of blood was collected via cardiac puncture.
# [5] = 9.8 ug, Concentrations of Peptide in Serum
# [6] = 20 ug, Concentration of Peptide in Serum, Mean
# [7] = 22 ug, Concentration of Peptide in Serum, Mean
# [8] = 26.2 ug, Concentration of Peptide in Serum, Mean
# [9] = 26.2 ug, Concentrations of Peptide in Serum
# [10] = 27 ug, Concentration of Peptide in Serum, Mean
# [11] = 27 ug, Concentrations of Peptide in Serum
# [12] = 31 ug, Concentration of Peptide in Serum, Mean
# [13] = 32 ug, Concentration of Peptide in Serum, Mean
# [14] = 32 ug, Concentrations of Peptide in Serum
# [15] = 45.6 ug, Concentration of Peptide in Serum, Mean
# [16] = 54 ug, Concentrations of Peptide in Serum
# [17] = 57.7 ug, Concentration of Peptide in Serum, Mean
# [18] = 67.7 ug, Concentration of Peptide in Serum, Mean
# [19] = 141.9 ug, Concentration of Peptide in Serum, Mean
# [20] = 386.5 ug, Concentration of Peptide in Serum, Mean
structure (smiles),measurement,setting,value
CC[C@H](C)[C@H](NC(=O)[C@H](CO)NC(=O)[C@H](CCCCN)NC(=O)CNC(=O)[C@H](CCCCN)NC(=O)[C@H](CC(=O)O)NC(=O)[C@H](Cc1cnc[nH]1)NC(=O)[C@H](CC(C)C)NC(=O)[C@H](CC(C)C)NC(=O)[C@H](CCC(N)=O)NC(=O)[C@H](Cc1cnc[nH]1)NC(=O)[C@H](CCC(=O)O)NC(=O)[C@H](CO)NC(=O)[C@@H](NC(=O)[C@H](C)N)C(C)C)C(=O)N[C@@H](CCC(N)=O)C(=O)N[C@@H](CC(=O)O)C(=O)N[C@@H](CC(C)C)C(=O)N[C@@H](CCCNC(=N)N)C(=O)N[C@@H](CCCNC(=N)N)C(=O)N[C@@H](CCCNC(=N)N)C(=O)N[C@@H](CCC(=O)O)C(=O)N[C@@H](CC(C)C)C(=O)N[C@@H](CC(C)C)C(=O)N[C@@H](CCC(=O)O)C(=O)N[C@@H](CCCCN)C(=O)N[C@@H](CC(C)C)C(=O)N[C@@H](CC(C)C)C(=O)NC(C)(C)C(=O)N[C@@H](CCCCN)C(=O)N[C@@H](CC(C)C)C(=O)N[C@@H](Cc1cnc[nH]1)C(=O)N[C@H](C(=O)N[C@@H](C)C(N)=O)[C@@H](C)O [Peptide],AUC,"[1]; AUC5-90, Mean",3.68 ng·h/mL
same,Cmax,"[1]; Cmax, Mean",9.7 ng/mL
same,level at 5 min,"[1]; Concentration in Serum at 5 min, Mean",8.8 ng/mL
same,level at 0.25 h,"[1]; Concentration in Serum at 15 min, Mean",8.6 ng/mL
same,level at 0.5 h,"[1]; Concentration in Serum at 30 min, Mean",6 ng/mL
same,Tmax,"[1]; Tmax, Mean",9 min
same,"AUC5-90, Mean",[2],282
same,"Cmax, Mean",[2],12.3 ng/mL
same,"Tmax, Mean",[2],9 min
same,"Concentration in Serum at 5 min, Mean",[2]; 5 min,11.8 ng/mL
same,"Concentration in Serum at 15 min, Mean",[2]; 0.25 h,10.5 ng/mL
same,"Concentration in Serum at 30 min, Mean",[2]; 0.5 h,7.1 ng/mL
same,"AUC0-inf, LS Mean",[3]; 150 ug,0.15742 ng·h/mL
same,"AUC0-t, LS Mean",[3]; 150 ug,0.14285 ng·h/mL
same,"Cmax, LS Mean",[3]; 150 ug,0.31197 ng/mL
same,"AUC0-inf, LS Mean",[3]; 200 ug,0.19016 ng·h/mL
same,"AUC0-t, LS Mean",[3]; 200 ug,0.16679 ng·h/mL
same,"Cmax, LS Mean",[3]; 200 ug,0.48945 ng/mL
same,bioavailability,[4]; 9.8 ug,49%
same,AUC(0-t),[4]; 9.8 ug,5.72 ng·h/mL
same,Cmax,"[4]; 9.8 ug, Cmax",12 ng/mL
same,level at 5 min,[4]; [5],12 ng/mL
same,level at 0.25 h,[4]; [5],9.65 ng/mL
same,level at 0.5 h,[4]; [5],4.96 ng/mL
same,level at 0.75 h,[4]; [5],2.07 ng/mL
same,level at 1 h,[4]; [5],1.47 ng/mL
same,level at 1.5 h,[4]; [5],0.62 ng/mL
same,level at 2 h,[4]; [5],0.38 ng/mL
same,half-life,[4]; 9.8 ug,22 min
same,Tmax,[4]; 9.8 ug,5 min
same,bioavailability,[4]; 20 ug,47%
same,AUC(0-t),[4]; 20 ug,9.6 ng·h/mL
same,Cmax,"[4]; 20 ug, Cmax",11.9 ng/mL
same,level at 5 min,[4]; [6],9.34 ng/mL
same,level at 0.25 h,[4]; [6],11.9 ng/mL
same,level at 0.5 h,[4]; [6],6.4 ng/mL
same,level at 0.75 h,[4]; [6],7.12 ng/mL
same,level at 1.5 h,[4]; [6],3.14 ng/mL
same,half-life,[4]; 20 ug,43 min
same,Tmax,[4]; 20 ug,15 min
same,bioavailability,[4]; 20 ug/kg,69%
same,AUC(0-t),[4]; 20 ug/kg,2.77 ng·h/mL
same,Cmax,"[4]; 20 ug/kg, Cmax",7.29 ng/mL
same,Cmax,"[4]; 20 ug/kg, Cmax (20 μg/kg Dose)",7.29 ng/mL
same,half-life,[4]; 20 ug/kg,18 min
same,Tmax,[4]; 20 ug/kg,10 min
same,bioavailability,[4]; 22 ug,36%
same,AUC(0-t),[4]; 22 ug,7.75 ng·h/mL
same,Cmax,"[4]; 22 ug, Cmax",17.1 ng/mL
same,level at 5 min,[4]; [7],17.1 ng/mL
same,level at 0.25 h,[4]; [7],13.2 ng/mL
same,level at 0.5 h,[4]; [7],6.46 ng/mL
same,level at 0.75 h,[4]; [7],3.35 ng/mL
same,level at 1.5 h,[4]; [7],0.8 ng/mL
same,half-life,[4]; 22 ug,19 min
same,Tmax,[4]; 22 ug,5 min
same,bioavailability,[4]; 26.2 ug,101%
same,AUC(0-t),[4]; 26.2 ug,24.1 ng·h/mL
same,Cmax,"[4]; 26.2 ug, Cmax",44 ng/mL
same,level at 5 min,[4]; [8],34.6 ng/mL
same,level at 0.25 h,[4]; [8],44 ng/mL
same,level at 0.5 h,[4]; [8],17.3 ng/mL
same,level at 0.75 h,[4]; [8],13.8 ng/mL
same,level at 1.5 h,[4]; [8],2.22 ng/mL
same,level at 5 min,[4]; [9],41.1 ng/mL
same,level at 10 min,[4]; [9],26.7 ng/mL
same,level at 0.25 h,[4]; [9],42.8 ng/mL
same,level at 0.5 h,[4]; [9],17.4 ng/mL
same,level at 0.75 h,[4]; [9],12.5 ng/mL
same,half-life,[4]; 26.2 ug,18 min
same,Tmax,[4]; 26.2 ug,15 min
same,AUC(0-t),[4]; 27 ug,17 ng·h/mL
same,Cmax,"[4]; 27 ug, Cmax",31 ng/mL
same,level at 5 min,[4]; [10],32.6 ng/mL
same,level at 0.25 h,[4]; [10],31 ng/mL
same,level at 0.5 h,[4]; [10],18.1 ng/mL
same,level at 5 min,"[4]; 27 ug, Concentration of Peptide in Serum, individual rat",28.2 ng/mL
same,level at 5 min,[4]; [11],27.4 ng/mL
same,level at 0.25 h,[4]; [11],29.7 ng/mL
same,level at 0.5 h,[4]; [11],12.2 ng/mL
same,level at 0.75 h,[4]; [11],9.1 ng/mL
same,half-life,[4]; 27 ug,20 min
same,Tmax,[4]; 27 ug,15 min
same,bioavailability,[4]; 31 ug,42%
same,AUC(0-t),[4]; 31 ug,12.5 ng·h/mL
same,Cmax,"[4]; 31 ug, Cmax",23.6 ng/mL
same,level at 5 min,[4]; [12],20.3 ng/mL
same,level at 0.25 h,[4]; [12],23.6 ng/mL
same,level at 0.5 h,[4]; [12],12.5 ng/mL
same,level at 0.75 h,[4]; [12],4.73 ng/mL
same,level at 1.5 h,[4]; [12],1.04 ng/mL
same,half-life,[4]; 31 ug,17 min
same,Tmax,[4]; 31 ug,15 min
same,bioavailability,[4]; 32 ug,102%
same,AUC(0-t),[4]; 32 ug,27.4 ng·h/mL
same,Cmax,"[4]; 32 ug, Cmax",49.2 ng/mL
same,level at 5 min,[4]; [13],45.2 ng/mL
same,level at 0.25 h,[4]; [13],49.2 ng/mL
same,level at 0.5 h,[4]; [13],18.9 ng/mL
same,level at 0.75 h,[4]; [13],13.6 ng/mL
same,level at 1.5 h,[4]; [13],5.03 ng/mL
same,level at 5 min,[4]; [14],25.1 ng/mL
same,level at 10 min,[4]; [14],34.4 ng/mL
same,level at 0.25 h,[4]; [14],34 ng/mL
same,level at 0.5 h,[4]; [14],17.8 ng/mL
same,level at 0.75 h,[4]; [14],12.7 ng/mL
same,half-life,[4]; 32 ug,25 min
same,Tmax,[4]; 32 ug,15 min
same,bioavailability,[4]; 45.6 ug,108%
same,AUC(0-t),[4]; 45.6 ug,48.7 ng·h/mL
same,Cmax,"[4]; 45.6 ug, Cmax",88.2 ng/mL
same,level at 5 min,[4]; [15],88.2 ng/mL
same,level at 0.25 h,[4]; [15],76.1 ng/mL
same,level at 0.5 h,[4]; [15],36.1 ng/mL
same,level at 0.75 h,[4]; [15],29.3 ng/mL
same,level at 1.5 h,[4]; [15],4.79 ng/mL
same,half-life,[4]; 45.6 ug,20 min
same,Tmax,[4]; 45.6 ug,5 min
same,bioavailability,[4]; 54 ug,37%
same,AUC(0-t),[4]; 54 ug,23 ng·h/mL
same,Cmax,"[4]; 54 ug, Cmax",49.8 ng/mL
same,level at 5 min,[4]; [16],16.5 ng/mL
same,level at 0.25 h,[4]; [16],49.8 ng/mL
same,level at 0.5 h,[4]; [16],17.1 ng/mL
same,level at 0.75 h,[4]; [16],9.37 ng/mL
same,level at 1 h,[4]; [16],7.75 ng/mL
same,half-life,[4]; 54 ug,24 min
same,Tmax,[4]; 54 ug,15 min
same,bioavailability,[4]; 57.7 ug,82%
same,AUC(0-t),[4]; 57.7 ug,41.8 ng·h/mL
same,Cmax,"[4]; 57.7 ug, Cmax",60.8 ng/mL
same,level at 5 min,[4]; [17],43.1 ng/mL
same,level at 0.25 h,[4]; [17],60.8 ng/mL
same,level at 0.5 h,[4]; [17],40.1 ng/mL
same,level at 0.75 h,[4]; [17],28.1 ng/mL
same,level at 1.5 h,[4]; [17],3.72 ng/mL
same,half-life,[4]; 57.7 ug,18 min
same,Tmax,[4]; 57.7 ug,15 min
same,bioavailability,[4]; 67.7 ug,74%
same,AUC(0-t),[4]; 67.7 ug,48.2 ng·h/mL
same,Cmax,"[4]; 67.7 ug, Cmax",82.7 ng/mL
same,level at 5 min,[4]; [18],64.9 ng/mL
same,level at 0.25 h,[4]; [18],82.7 ng/mL
same,level at 0.5 h,[4]; [18],51.3 ng/mL
same,level at 0.75 h,[4]; [18],19.7 ng/mL
same,level at 1.5 h,[4]; [18],7.6 ng/mL
same,half-life,[4]; 67.7 ug,22 min
same,Tmax,[4]; 67.7 ug,15 min
same,AUC(0-t),[4]; 141.9 ug,173 ng·h/mL
same,Cmax,"[4]; 141.9 ug, Cmax",230 ng/mL
same,level at 5 min,[4]; [19],186 ng/mL
same,level at 0.25 h,[4]; [19],230 ng/mL
same,level at 0.5 h,[4]; [19],219 ng/mL
same,level at 0.75 h,[4]; [19],91.8 ng/mL
same,level at 1.5 h,[4]; [19],23.7 ng/mL
same,half-life,[4]; 141.9 ug,21 min
same,Tmax,[4]; 141.9 ug,15 min
same,bioavailability,[4]; 386.5 ug,22%
same,AUC(0-t),[4]; 386.5 ug,75.5 ng·h/mL
same,Cmax,"[4]; 386.5 ug, Cmax",118 ng/mL
same,level at 5 min,[4]; [20],97.5 ng/mL
same,level at 0.25 h,[4]; [20],133 ng/mL
same,level at 0.5 h,[4]; [20],75.4 ng/mL
same,level at 0.75 h,[4]; [20],42.2 ng/mL
same,level at 1.5 h,[4]; [20],7.53 ng/mL
same,half-life,[4]; 386.5 ug,18 min
same,Tmax,[4]; 386.5 ug,15 min
